Measurements from article PMC11233931, “Remodeling tumor‐associated macrophage for anti‐cancer effects by rational design of irreversible inhibition of mitogen‐activated protein kinase‐activated protein kinase 2” (MedComm, 2024).

Legend:
Test in all cases: Eurofins kinase selectivity profile against 380 other human recombinant kinases (Table S2)
Format in all cases: biochemical
[1] = target: T1, 380 human recombinant protein kinases (Homo sapiens, UniProt P06239); settings: Lck(h), read-out: Inhibition rate
T1 construct: purchased Eurofins (Celle Lévescault)
T1 sequence (P06239 whole entry): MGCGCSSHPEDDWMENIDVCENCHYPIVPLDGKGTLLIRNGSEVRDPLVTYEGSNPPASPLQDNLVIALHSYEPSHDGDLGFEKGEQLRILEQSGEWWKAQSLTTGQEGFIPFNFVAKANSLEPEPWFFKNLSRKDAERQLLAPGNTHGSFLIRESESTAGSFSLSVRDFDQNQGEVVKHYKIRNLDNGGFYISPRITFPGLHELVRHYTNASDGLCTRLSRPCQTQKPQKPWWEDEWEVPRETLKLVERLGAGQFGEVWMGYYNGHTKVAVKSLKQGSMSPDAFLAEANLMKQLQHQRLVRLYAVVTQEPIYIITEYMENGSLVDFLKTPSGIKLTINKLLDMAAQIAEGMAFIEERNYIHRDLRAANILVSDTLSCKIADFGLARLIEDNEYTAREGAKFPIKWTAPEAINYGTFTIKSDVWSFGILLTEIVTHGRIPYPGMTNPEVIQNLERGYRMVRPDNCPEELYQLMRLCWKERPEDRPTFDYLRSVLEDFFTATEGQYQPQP
In short: (§1)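 The inhibitor was sent to a contract lab and screened at various concentrations against 380 human recombinant protein kinases. This served as a counter-screen for MK2 specificity.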

[2] = target: T2, 380 human recombinant protein kinases (Homo sapiens, UniProt P37173); settings: TGFBR2(h), read-out: Inhibition rate (%)
T2 construct: purchased Eurofins (Celle Lévescault)
T2 sequence (P37173 23-567): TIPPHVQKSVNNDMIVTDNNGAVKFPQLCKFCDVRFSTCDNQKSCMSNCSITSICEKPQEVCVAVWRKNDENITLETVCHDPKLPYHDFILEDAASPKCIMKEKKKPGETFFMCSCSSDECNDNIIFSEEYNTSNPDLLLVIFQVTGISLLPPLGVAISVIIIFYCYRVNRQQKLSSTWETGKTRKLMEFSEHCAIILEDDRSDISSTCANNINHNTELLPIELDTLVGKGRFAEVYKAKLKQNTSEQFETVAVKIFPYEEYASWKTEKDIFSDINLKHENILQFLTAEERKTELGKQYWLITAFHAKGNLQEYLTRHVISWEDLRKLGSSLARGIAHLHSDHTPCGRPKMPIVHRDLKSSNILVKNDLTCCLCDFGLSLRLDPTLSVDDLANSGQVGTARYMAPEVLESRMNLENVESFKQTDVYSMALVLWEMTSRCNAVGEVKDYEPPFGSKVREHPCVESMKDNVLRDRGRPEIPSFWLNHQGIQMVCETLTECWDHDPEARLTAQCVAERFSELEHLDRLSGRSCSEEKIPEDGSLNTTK
In short: as §1

[3] = target: T3, 380 human recombinant protein kinases (Homo sapiens, UniProt P49674); settings: CK1ε(h), read-out: Inhibition rate
T3 construct: purchased Eurofins (Celle Lévescault)
In short: as §1

[4] = target: T4, 380 human recombinant protein kinases (Homo sapiens, UniProt P49841); settings: GSK3β(h), read-out: Inhibition rate
T4 construct: purchased Eurofins (Celle Lévescault)
T4 sequence (P49841 whole entry): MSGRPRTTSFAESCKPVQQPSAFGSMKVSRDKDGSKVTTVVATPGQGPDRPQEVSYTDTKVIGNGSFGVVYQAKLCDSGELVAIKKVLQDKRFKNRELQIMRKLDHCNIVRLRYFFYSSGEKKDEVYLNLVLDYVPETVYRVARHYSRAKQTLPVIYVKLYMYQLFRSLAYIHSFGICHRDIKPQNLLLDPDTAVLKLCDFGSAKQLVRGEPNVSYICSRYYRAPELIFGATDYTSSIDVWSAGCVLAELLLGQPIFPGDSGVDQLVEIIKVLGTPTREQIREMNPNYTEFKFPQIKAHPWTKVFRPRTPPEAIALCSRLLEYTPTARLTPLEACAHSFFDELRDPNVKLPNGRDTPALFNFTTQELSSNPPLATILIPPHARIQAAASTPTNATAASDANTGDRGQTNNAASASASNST
In short: as §1

[5] = target: T5, 380 human recombinant protein kinases (Homo sapiens, UniProt P78368); settings: CK1γ2(h), read-out: Inhibition rate
T5 construct: purchased Eurofins (Celle Lévescault)
T5 sequence (P78368 whole entry): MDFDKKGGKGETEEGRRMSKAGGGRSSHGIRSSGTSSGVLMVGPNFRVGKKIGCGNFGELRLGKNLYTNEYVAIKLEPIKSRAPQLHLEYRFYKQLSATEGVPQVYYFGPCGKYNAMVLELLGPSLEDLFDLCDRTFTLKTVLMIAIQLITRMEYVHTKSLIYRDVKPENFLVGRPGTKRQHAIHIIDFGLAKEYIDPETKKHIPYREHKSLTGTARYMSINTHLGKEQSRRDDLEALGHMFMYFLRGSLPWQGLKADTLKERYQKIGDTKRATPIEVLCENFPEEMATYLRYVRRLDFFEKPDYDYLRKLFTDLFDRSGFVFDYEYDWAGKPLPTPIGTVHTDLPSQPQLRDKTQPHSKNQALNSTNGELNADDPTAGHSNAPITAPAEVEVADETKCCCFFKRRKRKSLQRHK
In short: as §1

[6] = target: T6, 380 human recombinant protein kinases (Homo sapiens, UniProt Q00526); settings: CDK3/cyclinE(h), read-out: Inhibition rate
T6 construct: purchased Eurofins (Celle Lévescault)
T6 sequence (Q00526 whole entry): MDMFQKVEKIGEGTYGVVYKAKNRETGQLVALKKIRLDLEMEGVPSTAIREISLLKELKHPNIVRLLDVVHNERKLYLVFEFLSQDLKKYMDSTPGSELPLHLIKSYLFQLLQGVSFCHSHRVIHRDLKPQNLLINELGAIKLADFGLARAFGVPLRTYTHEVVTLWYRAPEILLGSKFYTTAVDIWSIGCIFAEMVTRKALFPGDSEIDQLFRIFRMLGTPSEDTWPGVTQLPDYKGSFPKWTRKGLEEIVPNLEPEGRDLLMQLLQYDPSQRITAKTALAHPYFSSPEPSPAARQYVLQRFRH
In short: as §1

[7] = target: T7, 380 human recombinant protein kinases (Homo sapiens, UniProt Q08345); settings: DDR1(h), read-out: Inhibition rate
T7 construct: purchased Eurofins (Celle Lévescault)
T7 sequence (Q08345 19-913): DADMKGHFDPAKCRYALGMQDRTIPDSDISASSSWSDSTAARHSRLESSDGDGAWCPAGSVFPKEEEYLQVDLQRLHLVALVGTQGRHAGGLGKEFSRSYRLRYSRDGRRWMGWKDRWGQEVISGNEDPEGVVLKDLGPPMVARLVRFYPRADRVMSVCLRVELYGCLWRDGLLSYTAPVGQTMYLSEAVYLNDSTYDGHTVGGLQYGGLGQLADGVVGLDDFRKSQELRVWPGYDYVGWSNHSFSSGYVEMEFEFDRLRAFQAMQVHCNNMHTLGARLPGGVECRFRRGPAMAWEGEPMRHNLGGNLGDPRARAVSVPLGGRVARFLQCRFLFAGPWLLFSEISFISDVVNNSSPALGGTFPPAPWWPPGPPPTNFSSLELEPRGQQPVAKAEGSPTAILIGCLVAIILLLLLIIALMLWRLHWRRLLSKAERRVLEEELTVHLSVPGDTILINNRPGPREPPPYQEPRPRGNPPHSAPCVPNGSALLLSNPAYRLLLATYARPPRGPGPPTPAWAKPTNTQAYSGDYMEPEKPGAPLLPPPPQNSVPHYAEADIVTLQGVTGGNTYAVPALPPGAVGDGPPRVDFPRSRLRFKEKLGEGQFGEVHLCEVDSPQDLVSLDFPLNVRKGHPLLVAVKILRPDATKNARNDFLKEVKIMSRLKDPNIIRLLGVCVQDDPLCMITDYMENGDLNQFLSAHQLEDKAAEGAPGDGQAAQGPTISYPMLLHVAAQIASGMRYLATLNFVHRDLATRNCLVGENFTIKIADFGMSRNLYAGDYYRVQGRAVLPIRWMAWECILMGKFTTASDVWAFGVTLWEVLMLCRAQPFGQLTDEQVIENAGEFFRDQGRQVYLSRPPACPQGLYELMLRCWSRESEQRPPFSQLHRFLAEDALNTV
In short: as §1

[8] = target: T8, 380 human recombinant protein kinases (Homo sapiens, UniProt Q13043); settings: MST1(h), read-out: Inhibition rate
T8 construct: purchased Eurofins (Celle Lévescault)
T8 sequence (Q13043 1-487): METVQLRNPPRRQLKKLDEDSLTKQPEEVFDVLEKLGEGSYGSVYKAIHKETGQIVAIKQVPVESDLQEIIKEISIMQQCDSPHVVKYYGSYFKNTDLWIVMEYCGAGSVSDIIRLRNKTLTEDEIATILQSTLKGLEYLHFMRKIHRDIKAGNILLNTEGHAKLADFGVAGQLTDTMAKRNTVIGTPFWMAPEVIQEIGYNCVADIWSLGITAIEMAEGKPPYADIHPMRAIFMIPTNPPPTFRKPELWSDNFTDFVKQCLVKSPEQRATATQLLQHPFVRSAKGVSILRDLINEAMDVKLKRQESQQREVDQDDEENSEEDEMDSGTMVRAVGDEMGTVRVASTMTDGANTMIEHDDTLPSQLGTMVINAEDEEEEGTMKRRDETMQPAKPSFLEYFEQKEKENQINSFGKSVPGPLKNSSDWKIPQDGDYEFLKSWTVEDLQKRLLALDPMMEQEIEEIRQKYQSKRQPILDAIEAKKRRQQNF
In short: as §1

[9] = target: T9, 380 human recombinant protein kinases (Homo sapiens, UniProt Q6P2M8); settings: CaMKIß(h), read-out: Inhibition rate
T9 construct: purchased Eurofins (Celle Lévescault)
T9 sequence (Q6P2M8 whole entry): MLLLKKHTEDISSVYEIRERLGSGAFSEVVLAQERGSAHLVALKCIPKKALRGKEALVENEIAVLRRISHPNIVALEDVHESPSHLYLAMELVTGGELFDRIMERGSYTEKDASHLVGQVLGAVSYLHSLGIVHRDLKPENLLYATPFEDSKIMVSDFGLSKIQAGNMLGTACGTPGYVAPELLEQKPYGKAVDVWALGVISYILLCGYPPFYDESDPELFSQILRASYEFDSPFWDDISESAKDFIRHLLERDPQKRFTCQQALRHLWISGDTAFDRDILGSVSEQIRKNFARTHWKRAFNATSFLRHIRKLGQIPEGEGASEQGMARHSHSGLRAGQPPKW
In short: as §1

[10] = target: T10, 380 human recombinant protein kinases (Homo sapiens, UniProt Q9H422); settings: HIPK3(h), read-out: Inhibition rate
T10 construct: purchased Eurofins (Celle Lévescault)
In short: as §1

[11] = target: T11, 380 human recombinant protein kinases (Homo sapiens, UniProt Q9NYL2); settings: ZAK(h), read-out: Inhibition rate (%)
T11 construct: purchased Eurofins (Celle Lévescault)
In short: as §1

[12] = target: T12, 380 human recombinant protein kinases (Homo sapiens, UniProt Q9NYV4); settings: CDK12/cyclinK(h), read-out: Inhibition rate
T12 construct: purchased Eurofins (Celle Lévescault)
T12 sequence (Q9NYV4 whole entry): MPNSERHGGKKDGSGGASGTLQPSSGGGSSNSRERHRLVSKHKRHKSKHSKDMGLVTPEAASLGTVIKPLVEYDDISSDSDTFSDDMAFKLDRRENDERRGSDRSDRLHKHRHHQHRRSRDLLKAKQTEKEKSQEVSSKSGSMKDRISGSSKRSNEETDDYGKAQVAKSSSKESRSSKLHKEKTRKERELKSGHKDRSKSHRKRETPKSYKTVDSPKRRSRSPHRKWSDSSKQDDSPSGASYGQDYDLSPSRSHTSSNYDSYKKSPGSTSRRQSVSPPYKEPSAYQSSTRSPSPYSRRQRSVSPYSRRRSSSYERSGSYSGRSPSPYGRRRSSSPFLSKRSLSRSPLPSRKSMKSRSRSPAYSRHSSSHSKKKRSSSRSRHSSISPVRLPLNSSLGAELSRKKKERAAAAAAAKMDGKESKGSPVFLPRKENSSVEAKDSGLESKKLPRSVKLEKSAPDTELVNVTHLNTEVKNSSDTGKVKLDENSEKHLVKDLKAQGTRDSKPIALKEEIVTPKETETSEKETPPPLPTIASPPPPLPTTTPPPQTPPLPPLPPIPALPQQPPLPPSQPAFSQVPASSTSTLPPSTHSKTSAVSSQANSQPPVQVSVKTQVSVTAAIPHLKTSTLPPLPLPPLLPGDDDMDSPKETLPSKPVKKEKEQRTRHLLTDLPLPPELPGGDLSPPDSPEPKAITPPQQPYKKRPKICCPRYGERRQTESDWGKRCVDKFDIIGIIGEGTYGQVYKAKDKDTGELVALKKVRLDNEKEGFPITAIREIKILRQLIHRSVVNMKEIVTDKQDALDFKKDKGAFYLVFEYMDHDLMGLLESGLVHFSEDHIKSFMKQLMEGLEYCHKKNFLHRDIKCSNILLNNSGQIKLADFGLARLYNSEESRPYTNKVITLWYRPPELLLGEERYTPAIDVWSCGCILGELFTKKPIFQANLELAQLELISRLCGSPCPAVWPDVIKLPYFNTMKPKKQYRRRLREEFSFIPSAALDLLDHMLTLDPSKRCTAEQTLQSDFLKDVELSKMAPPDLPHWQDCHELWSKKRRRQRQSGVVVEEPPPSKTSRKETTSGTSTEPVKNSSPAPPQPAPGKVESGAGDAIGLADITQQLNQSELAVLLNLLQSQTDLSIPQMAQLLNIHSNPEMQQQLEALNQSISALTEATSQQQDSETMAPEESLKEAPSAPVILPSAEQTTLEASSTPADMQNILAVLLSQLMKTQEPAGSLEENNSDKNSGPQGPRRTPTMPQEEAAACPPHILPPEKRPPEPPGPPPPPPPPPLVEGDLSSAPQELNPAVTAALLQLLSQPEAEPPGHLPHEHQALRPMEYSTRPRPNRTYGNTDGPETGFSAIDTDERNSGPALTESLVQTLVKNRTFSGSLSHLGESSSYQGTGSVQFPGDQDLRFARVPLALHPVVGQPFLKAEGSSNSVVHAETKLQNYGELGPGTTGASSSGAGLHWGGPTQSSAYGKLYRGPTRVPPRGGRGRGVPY
In short: as §1

[13] = target: T13, 380 human recombinant protein kinases (Homo sapiens, UniProt Q9UHD2); settings: TBK1(h), read-out: Inhibition rate (%)
T13 construct: purchased Eurofins (Celle Lévescault)
T13 sequence (Q9UHD2 1-729): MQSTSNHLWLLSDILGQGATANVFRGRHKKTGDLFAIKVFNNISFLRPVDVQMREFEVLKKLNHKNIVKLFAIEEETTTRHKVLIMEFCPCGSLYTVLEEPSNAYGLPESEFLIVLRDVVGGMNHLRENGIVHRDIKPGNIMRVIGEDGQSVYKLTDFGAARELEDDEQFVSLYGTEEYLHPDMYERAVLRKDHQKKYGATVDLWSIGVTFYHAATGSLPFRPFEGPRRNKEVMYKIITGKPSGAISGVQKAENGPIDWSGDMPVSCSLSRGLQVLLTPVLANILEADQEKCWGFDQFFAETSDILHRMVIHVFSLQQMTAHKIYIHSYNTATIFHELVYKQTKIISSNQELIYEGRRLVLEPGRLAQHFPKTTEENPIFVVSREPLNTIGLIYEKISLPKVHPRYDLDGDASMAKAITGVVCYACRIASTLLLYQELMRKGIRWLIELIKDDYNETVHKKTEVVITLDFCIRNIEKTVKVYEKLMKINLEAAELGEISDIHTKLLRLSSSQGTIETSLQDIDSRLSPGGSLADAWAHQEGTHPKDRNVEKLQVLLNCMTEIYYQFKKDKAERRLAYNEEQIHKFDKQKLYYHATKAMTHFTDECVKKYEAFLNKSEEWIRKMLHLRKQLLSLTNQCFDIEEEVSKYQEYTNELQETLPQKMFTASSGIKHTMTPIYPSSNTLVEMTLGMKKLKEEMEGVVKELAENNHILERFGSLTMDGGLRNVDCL
In short: as §1

C=CC(=O)Nc1cc(-c2cc(-c3cc4c([nH]3)CCNC4=O)ccn2)ccc1OC(F)(F)F [compound 11]
inhibition at 0.01 µM ([1]; 10 nM): -7% | inhibition at 0.1 µM ([1]; 100 nM): -5% | inhibition at 1 µM ([1]; 1000 nM): -10% | inhibition at 0.01 µM ([2]; 10 nM): -11% | inhibition at 0.1 µM ([2]; 100 nM): 2% | inhibition at 1 µM ([2]; 1000 nM): 6% | inhibition at 0.01 µM ([3]; 10 nM): -5% | inhibition at 0.1 µM ([3]; 100 nM): 4% | inhibition at 1 µM ([3]; 1000 nM): 34% | inhibition at 0.01 µM ([4]; 10 nM): -10% | inhibition at 0.1 µM ([4]; 100 nM): -7% | inhibition at 1 µM ([4]; 1000 nM): 5% | inhibition at 0.01 µM ([5]; 10 nM): -7% | inhibition at 0.1 µM ([5]; 100 nM): 29% | inhibition at 1 µM ([5]; 1000 nM): 74% | inhibition at 0.01 µM ([6]; 10 nM): -5% | inhibition at 0.1 µM ([6]; 100 nM): -1% | inhibition at 1 µM ([6]; 1000 nM): 0% | inhibition at 0.01 µM ([7]; 10 nM): 0% | inhibition at 0.1 µM ([7]; 100 nM): -1% | inhibition at 1 µM ([7]; 1000 nM): -7% | inhibition at 0.01 µM ([8]; 10 nM): -1% | inhibition at 0.1 µM ([8]; 100 nM): -9% | inhibition at 1 µM ([8]; 1000 nM): 0% | inhibition at 0.01 µM ([9]; 10 nM): -6% | inhibition at 0.1 µM ([9]; 100 nM): -2% | inhibition at 1 µM ([9]; 1000 nM): -2% | inhibition at 0.01 µM ([10]; 10 nM): -9% | inhibition at 0.1 µM ([10]; 100 nM): -8% | inhibition at 1 µM ([10]; 1000 nM): 1% | inhibition at 0.01 µM ([11]; 10 nM): -3% | inhibition at 0.1 µM ([11]; 100 nM): -1% | inhibition at 1 µM ([11]; 1000 nM): 1% | inhibition at 0.01 µM ([12]; 10 nM): -1% | inhibition at 0.1 µM ([12]; 100 nM): 1% | inhibition at 1 µM ([12]; 1000 nM): 5% | inhibition at 0.01 µM ([13]; 10 nM): 1% | inhibition at 0.1 µM ([13]; 100 nM): -13% | inhibition at 1 µM ([13]; 1000 nM): -7%
